Assay results taken from ChEMBL document CHEMBL1137045, “Quinazolinone-based fungal efflux pump inhibitors. Part 1: Discovery of an (N-methylpiperazine)-containing derivative with activity in clinically relevant Candida spp” (Bioorg Med Chem Lett, 2004).
In brackets after ≈: the same amount, converted by molar mass.

How the values were obtained:
Nakaseomyces glabratus [1] = test: In vitro concentration to inhibit Candida glabrata CgCDR2 transporter gene over-expressed in Saccharomyces cerevisiae strain Y218; type: functional, organism-based
Nakaseomyces glabratus [2] = test: In vitro concentration to inhibit Candida glabrata CgCDR1 transporter gene over-expressed in Saccharomyces cerevisiae strain Y170; type: functional, organism-based
Candida albicans [3] = test: In vitro concentration to inhibit Candida albicans CDR1 transporter gene over-expressed in Saccharomyces cerevisiae strain YEM172; type: functional, organism-based
Nakaseomyces glabratus [4] = test: In vitro minimum potentiation concentration required to achieve an 8-fold reduction in fluconazole MIC against Candida glabrata strain YEM19 (overexpressing both […]); type: functional
Candida albicans [5] = test: In vitro minimum potentiation concentration required to achieve an 8-fold reduction in fluconazole MIC against Candida albicans strain YEM15 (overexpressing both CDR1 and CDR2); type: functional
Candida albicans [6] = test: In vitro concentration to inhibit Candida albicans CDR2 transporter gene over-expressed in Saccharomyces cerevisiae strain YEM171; type: functional, organism-based
Saccharomyces cerevisiae [7] = test: In vitro concentration required to inhibit 80% growth of Saccharomyces cerevisiae strain YEM171 (CDR2 over-expressed) after 48 h; type: functional
Saccharomyces cerevisiae [8] = test: In vitro concentration required to inhibit 80% growth of Saccharomyces cerevisiae strain Y170 (CgCDR1 over-expressed) after 48 h; type: functional
Saccharomyces cerevisiae [9] = test: In vitro concentration required to inhibit 80% growth of Saccharomyces cerevisiae strain YEM139 (PDR5 deleted) after 48 h; type: functional
Saccharomyces cerevisiae [10] = test: In vitro concentration required to inhibit 80% growth of Saccharomyces cerevisiae strain YEM172 (CDR1 over-expressed) after 48 h; type: functional
Saccharomyces cerevisiae [11] = test: In vitro concentration required to inhibit 80% growth of Saccharomyces cerevisiae strain Y218 (CgCDR2 over-expressed) after 48 h; type: functional

SMILES | IC50 (Nakaseomyces glabratus [1]) [µg/mL] | IC50 (Nakaseomyces glabratus [2]) [µg/mL] | IC50 (Candida albicans [3]) [µg/mL] | MPC8 (Nakaseomyces glabratus [4]) [µg/mL] | MPC8 (Candida albicans [5]) [µg/mL] | IC50 (Candida albicans [6]) [µg/mL] | MIC (Saccharomyces cerevisiae [7]) [µg/mL] | MIC (Saccharomyces cerevisiae [8]) [µg/mL] | MIC (Saccharomyces cerevisiae [9]) [µg/mL] | MIC (Saccharomyces cerevisiae [10]) [µg/mL] | MIC (Saccharomyces cerevisiae [11]) [µg/mL]
COc1ccc(N(C(=O)Nc2cccc(Cl)c2)C(C)(C)c2nc3ccccc3c(=O)n2N2CCN(C)CC2)c(OC)c1 | > 32 | > 32 | > 32 | >32 | >32 | > 32 | – | – | – | – | –
COc1ccc(N(C(=O)Nc2cccc(Cl)c2)[C@@H](C)c2nc3ccccc3c(=O)n2N2CCN(C)CC2)c(OC)c1 | > 32 | 4 (≈ 6.93 µM) | 2 (≈ 3.47 µM) | 1 | 1 | > 32 | – | – | – | – | –
COc1ccc(N(C(=O)Nc2cccc(Cl)c2)C(C)c2nc3ccccc3c(=O)n2Cc2ccccc2)c(OC)c1 (configuration not stated) | > 32 | > 32 | 0.12 (≈ 0.211 µM) | >32 | 0.5 | > 32 | – | – | – | – | –
COc1ccc(N(Cc2nc3ccccc3c(=O)n2N2CCN(C)CC2)C(=O)Nc2cccc(Cl)c2)c(OC)c1 | 32 (≈ 56.8 µM) | > 32 | 32 (≈ 56.8 µM) | 16 | 16 | > 32 | – | – | – | – | –
COc1ccc(N(C(=O)Nc2cccc(Cl)c2)[C@H](C)c2nc3ccccc3c(=O)n2N2CCN(C)CC2)c(OC)c1 | > 32 | > 32 | > 32 | >32 | >32 | > 32 | – | – | – | – | –
OC(Cn1cncn1)(Cn1cncn1)c1ccc(F)cc1F [FLUCONAZOLE] | – | – | – | – | – | – | 8 (≈ 26.1 µM) | 128 (≈ 418 µM) | 0.5 (≈ 1.63 µM) | 128 (≈ 418 µM) | 2 (≈ 6.53 µM)
CCOC(=O)CCn1c(C(C)N(C(=O)Nc2cccc(Cl)c2)c2ccc(OC)cc2OC)nc2ccccc2c1=O (configuration not stated) | > 32 | > 32 | 0.5 (≈ 0.863 µM) | >32 | 1 | > 32 | – | – | – | – | –
COc1ccc(N(C(=O)Nc2cccc(Cl)c2)C(C)c2nc3ccccc3c(=O)n2N2CCN(C)CC2)c(OC)c1 (configuration not stated) | > 16 | 8 (≈ 13.9 µM) | 4 (≈ 6.93 µM) | 4 | 1 | > 16 | – | – | – | – | –
